Measured values as given in US11945814B2, “Salt form” (CRT Pioneer Fund LP, priority 2018, dated 2024).

Tests used:
[1] = Solubility of the diphosphate salt in a range of dissolution media; type: physicochemical
Description: The pH of the aqueous mixtures were also measured.

[2] = Stability assessment after storage at 40° C. and 75% RH for 3 weeks; type: physicochemical
Description: FIG. 3 compares the XRPD of the diphosphate salt (Form A) before (bottom) and after (top) storage at 40° C. and 75% RH.

[3] = Dynamic vapour sorption (DVS) assessment; type: physicochemical
Description: The ability of samples studied to absorb moisture (or not) over a set of well-determined humidity ranges was assessed.
Sorption isotherms were obtained using a Hiden Isochema moisture sorption analyser (model IGAsorp), controlled by IGAsorp Systems Software V6.50.48. The sample was maintained at a constant temperature (25° C.) by the instrument controls. The humidity was controlled by mixing streams of dry and wet nitrogen, with a total flow of 250 ml·min^−1. The instrument was verified for relative humidity content by measuring three calibrated Rotronic salt solutions (10-50-88%). The weight change of the sample was monitored as a function of humidity by a microbalance (accuracy+/−0.005 mg). A defined amount of sample (typically 10-15 mg powder) was placed in a tared mesh stainless steel basket under ambient conditions. A full experimental cycle typically consisted of three scans (desorption, sorption, and desorption) at a constant temperature (25° C.) and 10% RH intervals over a 0-90% range (60 minutes for each humidity level).
Solids are then held post cycle at 0% RH for 2-3 hours and tested by XRPD and the remainder held at 90% RH for 2-3 hours and re-tested by XRPD.

[4] = Solubility of the diphosphate salt in a range of dissolution media; type: physicochemical; conditions: thermodynamic from solid, 37° C., minimum of 21 hours
MPS1 kinase = molecular target: T1, MPS1 kinase (Homo sapiens, UniProt P33981); conditions: cited from earlier work
T1 sequence (P33981 1-857): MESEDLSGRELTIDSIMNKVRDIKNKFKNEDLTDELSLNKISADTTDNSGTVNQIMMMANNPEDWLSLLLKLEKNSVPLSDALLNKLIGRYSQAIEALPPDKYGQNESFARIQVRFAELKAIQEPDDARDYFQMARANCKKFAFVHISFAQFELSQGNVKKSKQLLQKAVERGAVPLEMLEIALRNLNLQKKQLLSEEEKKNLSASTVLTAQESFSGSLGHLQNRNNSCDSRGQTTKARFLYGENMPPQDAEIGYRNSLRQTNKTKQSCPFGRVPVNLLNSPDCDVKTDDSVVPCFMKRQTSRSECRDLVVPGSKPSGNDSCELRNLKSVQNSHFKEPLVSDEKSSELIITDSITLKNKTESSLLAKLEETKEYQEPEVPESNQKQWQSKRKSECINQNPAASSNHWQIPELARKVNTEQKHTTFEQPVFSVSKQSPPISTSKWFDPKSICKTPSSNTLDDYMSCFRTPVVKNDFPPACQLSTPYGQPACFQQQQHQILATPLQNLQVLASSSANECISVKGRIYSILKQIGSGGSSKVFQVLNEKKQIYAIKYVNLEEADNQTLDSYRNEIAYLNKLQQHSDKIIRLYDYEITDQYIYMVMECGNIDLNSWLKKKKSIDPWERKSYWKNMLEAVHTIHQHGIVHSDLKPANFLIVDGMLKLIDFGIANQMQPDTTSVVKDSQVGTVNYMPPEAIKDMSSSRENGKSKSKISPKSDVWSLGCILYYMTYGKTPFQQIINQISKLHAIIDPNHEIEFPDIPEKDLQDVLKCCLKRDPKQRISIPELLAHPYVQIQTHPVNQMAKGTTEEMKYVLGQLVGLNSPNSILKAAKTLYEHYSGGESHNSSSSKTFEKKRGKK

## CCOc1cc(-c2nncn2C)ccc1Nc1ncc2cc(C)nc(NCC(C)(C)C)c2n1 [N2-(2-ethoxy-4-(4-methyl-4H-1,2,4-triazol-3-yl)phenyl)-6-methyl-N8-neopentylpyrido[3,4-d]pyrimidine-2,8-diamine]
[1]; Acetate buffer, pH 4.5
  pH of the aqueous mixture: 4.25
[1]; FaSSIF, pH 6.5
  pH of the aqueous mixture: 2.07
[1]; FeSSIF, pH 5
  pH of the aqueous mixture: 2.36
[1]; NaCl,0.9%/DMSO/Tween 20
  pH of the aqueous mixture: 2.13
[1]; Phosphate buffer, pH 6.7
  pH of the aqueous mixture: 2.38
[1]; SFaGF, pH 1.6
  pH of the aqueous mixture: 1.72
[1]; Sodium chloride 0.9% w/v
  pH of the aqueous mixture: 1.88
[1]; Water, deionised
  pH of the aqueous mixture: 1.91
[2]
  Chemical degradation after storage: no evidence of chemical degradation
  Hydration after storage: no evidence
[2]; FIG. 3
  Form modification after storage (XRPD): No evidence of form modification
[2]; loose screw top vials
  Change in appearance after storage: No change in appearance
[3]; 0-90% RH, 25° C., FIG. 4
  DVS profile (reversibility, hysteresis): reversible water uptake over the humidity range and no hysteresis
[3]; DVS, 0 to 90% RH, 25° C.
  Water uptake/loss: 4.03%
  Water uptake/loss as equivalents of water: about 1.5 equivalents of water
[3]; post DVS and exposure to 90% RH
  Flow of the solid post DVS: free flowing
[3]; post DVS at 0% RH and at 90% RH, FIG. 5
  Form change post DVS (XRPD): no evidence of form change
[4]; aqueous buffer, Acetate buffer, pH 4.5
  solubility: 0.02 mg/mL
[4]; aqueous buffer, Phosphate buffer, pH 6.7
  solubility: 30 mg/mL
[4]; aqueous with cosolvent or surfactant or cyclodextrin, NaCl,0.9%/DMSO/Tween 20
  solubility: 30.2 mg/mL
[4]; fassgf or other biorelevant, SFaGF, pH 1.6
  solubility: 30.5 mg/mL
[4]; organic solvent or mixture, PEG300
  solubility: 4.17 mg/mL
[4]; saline or isotonic, Sodium chloride 0.9% w/v
  solubility: 30.5 mg/mL
[4]; FaSSIF, pH 6.5
  solubility: 29.7 mg/mL
[4]; FeSSIF, pH 5
  solubility: 10.9 mg/mL
[4]; Water, deionised
  solubility: 30.2 mg/mL

## CCOc1cc(-c2nncn2C)ccc1Nc1ncc2cc(C)nc(NCC(C)(C)C)c2n1 [compound I, N2-(2-ethoxy-4-(4-methyl-4H-1,2,4-triazol-3-yl)phenyl)-6-methyl-N8-neopentylpyrido[3,4-d]pyrimidine-2,8-diamine]
MPS1 kinase
  MPS1 kinase inhibitory activity: potent
